Experimental data from patent US11186564B2, “Dual NAV1.2/5HT2a inhibitors for treating CNS disorders” (Sunovion Pharmaceuticals Inc., priority 2016, dated 2021).
Read-outs that look alike come from different tables or passages of the source.

Legend:
[1] = molecular target: T1, recombinant human serotonin receptor 5-HT2A (Homo sapiens, UniProt P28223); experiment: 5-HT2A antagonist Ca2+ assay in CHO-K1 cells (method A aequorin luminescence / method B FLIPR fluorescence); assay type: cell-based; details: antagonist mode vs EC80 of reference agonist, method A or B
T1 construct: expressed in transfected cells; method B: loaded with Ca2+ dye
T1 sequence (P28223 whole entry): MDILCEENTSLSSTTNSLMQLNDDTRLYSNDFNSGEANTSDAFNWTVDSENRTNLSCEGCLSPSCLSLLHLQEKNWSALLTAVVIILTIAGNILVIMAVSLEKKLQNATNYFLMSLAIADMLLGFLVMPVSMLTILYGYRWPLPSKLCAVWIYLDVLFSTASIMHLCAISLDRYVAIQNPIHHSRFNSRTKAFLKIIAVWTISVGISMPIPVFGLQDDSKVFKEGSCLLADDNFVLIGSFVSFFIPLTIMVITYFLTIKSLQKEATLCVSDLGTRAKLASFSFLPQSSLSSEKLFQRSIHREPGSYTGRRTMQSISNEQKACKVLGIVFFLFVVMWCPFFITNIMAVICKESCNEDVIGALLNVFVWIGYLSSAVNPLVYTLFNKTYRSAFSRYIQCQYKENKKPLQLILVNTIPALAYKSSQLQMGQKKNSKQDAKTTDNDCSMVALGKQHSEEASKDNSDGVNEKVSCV
Procedure, shortened: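 IC50 was obtained by nonlinear regression of percent inhibition of the EC80 agonist Ca2+ response in CHO-K1 cells stably expressing human 5-HT2A. The readout was aequorin luminescence with agonist injected 15 min after compound (A), or Ca2+-dye fluorescence on FLIPR with serotonin as agonist (B).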

[2] = molecular target: human sodium channel NaV1.2 (Homo sapiens, UniProt Q99250); experiment: NaV1.2 inhibition, automated patch-clamp (Q-Patch HTX), slow inactivated state (state C); assay type: cell-based; details: hNaV1.2 CHO cells, slow inactivated state; for IC50: read-out: NaV1.2 IC50; for inhibition at 10 µM: 10 μM compound, read-out: NaV1.2 (% inh), 10 μM; for inhibition at 1 µM: 1 μM compound, read-out: NaV1.2 (% inh), 1 μM
Sequence of human sodium channel NaV1.2 (Q99250 whole entry): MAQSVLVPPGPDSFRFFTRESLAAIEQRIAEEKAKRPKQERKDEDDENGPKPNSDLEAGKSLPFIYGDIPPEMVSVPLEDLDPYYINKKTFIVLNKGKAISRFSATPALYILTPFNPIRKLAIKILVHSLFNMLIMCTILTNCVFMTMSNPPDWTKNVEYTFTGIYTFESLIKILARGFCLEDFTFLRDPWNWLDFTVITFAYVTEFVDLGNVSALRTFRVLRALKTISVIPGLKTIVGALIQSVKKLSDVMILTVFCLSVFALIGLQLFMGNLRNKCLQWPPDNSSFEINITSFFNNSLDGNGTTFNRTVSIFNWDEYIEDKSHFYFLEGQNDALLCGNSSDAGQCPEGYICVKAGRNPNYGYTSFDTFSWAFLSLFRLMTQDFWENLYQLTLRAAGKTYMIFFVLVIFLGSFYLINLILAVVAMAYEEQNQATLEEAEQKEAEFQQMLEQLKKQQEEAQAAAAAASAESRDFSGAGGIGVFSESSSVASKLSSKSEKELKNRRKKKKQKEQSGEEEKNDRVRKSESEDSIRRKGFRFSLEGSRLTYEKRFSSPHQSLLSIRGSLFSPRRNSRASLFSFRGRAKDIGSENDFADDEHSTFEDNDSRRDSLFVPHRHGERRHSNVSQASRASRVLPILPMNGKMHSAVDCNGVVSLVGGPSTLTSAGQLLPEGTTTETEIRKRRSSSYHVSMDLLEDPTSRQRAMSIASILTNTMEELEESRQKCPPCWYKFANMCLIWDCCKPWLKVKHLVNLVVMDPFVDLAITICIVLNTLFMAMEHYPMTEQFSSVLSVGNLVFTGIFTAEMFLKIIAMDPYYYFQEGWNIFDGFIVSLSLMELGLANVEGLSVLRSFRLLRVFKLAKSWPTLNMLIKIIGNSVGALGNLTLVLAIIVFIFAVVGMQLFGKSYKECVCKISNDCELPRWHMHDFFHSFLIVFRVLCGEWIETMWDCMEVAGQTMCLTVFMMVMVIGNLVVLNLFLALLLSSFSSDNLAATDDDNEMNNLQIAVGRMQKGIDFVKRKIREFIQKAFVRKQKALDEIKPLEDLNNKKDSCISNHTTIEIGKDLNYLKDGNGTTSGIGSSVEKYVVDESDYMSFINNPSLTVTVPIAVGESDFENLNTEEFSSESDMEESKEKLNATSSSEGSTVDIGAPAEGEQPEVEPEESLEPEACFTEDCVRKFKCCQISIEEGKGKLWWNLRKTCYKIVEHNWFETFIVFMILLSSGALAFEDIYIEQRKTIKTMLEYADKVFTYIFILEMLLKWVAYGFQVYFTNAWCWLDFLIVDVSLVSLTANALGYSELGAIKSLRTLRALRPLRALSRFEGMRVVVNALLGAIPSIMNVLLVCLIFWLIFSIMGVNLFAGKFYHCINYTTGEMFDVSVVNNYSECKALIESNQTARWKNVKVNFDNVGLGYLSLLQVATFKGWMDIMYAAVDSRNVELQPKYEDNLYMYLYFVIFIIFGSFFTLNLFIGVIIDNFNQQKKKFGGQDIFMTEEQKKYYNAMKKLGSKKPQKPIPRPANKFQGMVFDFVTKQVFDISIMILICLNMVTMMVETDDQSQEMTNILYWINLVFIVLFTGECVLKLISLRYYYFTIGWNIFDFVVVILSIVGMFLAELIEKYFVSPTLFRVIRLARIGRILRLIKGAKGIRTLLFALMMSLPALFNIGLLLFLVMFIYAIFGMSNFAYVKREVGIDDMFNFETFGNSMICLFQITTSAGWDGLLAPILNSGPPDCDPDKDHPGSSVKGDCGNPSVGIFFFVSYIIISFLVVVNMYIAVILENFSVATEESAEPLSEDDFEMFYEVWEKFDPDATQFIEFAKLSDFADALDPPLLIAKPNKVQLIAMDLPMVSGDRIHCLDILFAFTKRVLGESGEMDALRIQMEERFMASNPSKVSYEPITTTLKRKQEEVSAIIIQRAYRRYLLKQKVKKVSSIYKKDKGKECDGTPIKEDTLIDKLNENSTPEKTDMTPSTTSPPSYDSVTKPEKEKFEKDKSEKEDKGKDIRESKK
Procedure, shortened: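 IC50 comes from a least-squares fit of percent inhibition, relative to vehicle, of current in the slow-inactivated state. That state is reached by a 10 s prepulse to −50 mV, then 15 ms at −90 mV, then a 5 ms test pulse to 0 mV. Human NaV1.2 in stable CHO K-1 cells, held at −100 mV, automated patch clamp.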

| inhibition at 10 µM [2] | inhibition at 1 µM [2] | SMILES | IC50 ([1]; read-out: 5HT2A IC50) | IC50 [2] | IC50 ([1]; 5HT2A IC50, μM) |
| --- | --- | --- | --- | --- | --- |
|  |  | Fc1ccc(OC2CCN(CC3CCc4ccccc43)CC2)cc1 (centres unmarked) [Example 112, 1-((2,3-dihydro-1H-inden-1-yl)methyl)-4-(4-fluorophenoxy)piperidine] | 0.004 µM | 1440 nM |  |
|  |  | O=C1c2ccccc2CCN1CCCN1CCC(Oc2ccc(F)cc2)CC1 [Example 222, 2-(3-(4-(4-fluorophenoxy)piperidin-1-yl)propyl)-3,4-dihydroisoquinolin-1(2H)-one] | 0.06 µM | 1300 nM |  |
| 12% |  | O=C1c2ccccc2CCN1CCCN1CCC(Oc2cccnc2)CC1 [Example 220, 2-(3-(4-(pyridin-3-yloxy)piperidin-1-yl)propyl)-3,4-dihydroisoquinolin-1(2H)-one] | 0.49 µM |  |  |
|  | 5% | c1ccc(N2C[C@@H]3CC[C@H]2CN3CCC2COCc3ccccc32)cc1 (stereo partly drawn) [Example 315, (1S,4S)-2-(2-(isochroman-4-yl)ethyl)-5-phenyl-2,5-diazabicyclo[2.2.2]octane] | 5.28 µM |  |  |
|  | 34% | Fc1ccc(OC2CCN(CCC3CCc4ncccc43)CC2)cc1 (centres unmarked) [Example 172, 5-(2-(4-(4-fluorophenoxy)piperidin-1-yl)ethyl)-6,7-dihydro-5H-cyclopenta[b]pyridine] | 0.12 µM |  |  |
|  |  | COc1ccc2c(c1)C(CN1CCC(OCc3ccccc3Cl)CC1)CC2 (centres unmarked) [Example 244, 4-((2-chlorobenzyl)oxy)-1-((6-methoxy-2,3-dihydro-1H-inden-1-yl)methyl)piperidine] | 0.06 µM | 160 nM |  |
| 21% |  | OC(COC1CCCCC1)CN1CCN(Cc2ccccc2)CC1 (centres unmarked) [Example 75, 1-(4-benzylpiperazin-1-yl)-3-(cyclohexyloxy)propan-2-ol] | > 4.2 µM |  |  |
|  |  | O[C@H](COC1CCCCC1)CN1CCC2(CCc3ccccc3O2)CC1 [Example 437, (S)-1-(cyclohexyloxy)-3-(spiro[chromane-2,4′-piperidin]-1′-yl)propan-2-ol] | 0.09 µM | 3410 nM |  |
|  | 41% | Fc1ccc(OC2CCN(CCC3COc4ccccc43)CC2)cc1 (centres unmarked) [Example 176, 1-(2-(2,3-dihydrobenzofuran-3-yl)ethyl)-4-(4-fluorophenoxy)piperidine] | 0.08 µM |  |  |
|  |  | c1ccc(OC2COC3(CCN(CC4CCc5ccccc54)CC3)C2)cc1 (single isomer, unassigned) [Example 380, 8-((2,3-dihydro-1H-inden-1-yl)methyl)-3-phenoxy-1-oxa-8-azaspiro[4.5]decane] | 0.15 µM | 120 nM |  |
|  | 12% | Fc1ccc(OC2CCN(CCC3CCc4ccncc43)CC2)cc1 (centres unmarked) [Example 174, 7-(2-(4-(4-fluorophenoxy)piperidin-1-yl)ethyl)-6,7-dihydro-5H-cyclopenta[c]pyridine] | 0.01 µM |  |  |
|  | 52% | COc1ccccc1O[C@@H]1CCN(CCC2CCOc3ccccc32)[C@@H](C)C1 (stereo partly drawn) [Example 182, (2S,4R)-1-(2-(chroman-4-yl)ethyl)-4-(2-methoxyphenoxy)-2-methylpiperidine] | 0.2 µM |  |  |
|  |  | N#Cc1ccc2c(c1)CCC2CN1CCC(Oc2ccc(F)cc2)CC1 (centres unmarked) [Example 121] | 0.07 µM | 2090 nM |  |
|  |  | O[C@H](COC1CCCCC1)CN1[C@@H]2CC[C@H]1CN(c1ccccc1)C2 [Example 287, (S)-1-(cyclohexyloxy)-3-((1R,5S)-3-phenyl-3,8-diazabicyclo[3.2.1]octan-8-yl)propan-2-ol] |  | 580 nM | 0.03 µM |
|  |  | c1ccc2c(c1)CCC1(CCN(CC3CCc4ccccc43)CC1)O2 (centres unmarked) [Example 401, 1′-((2,3-dihydro-1H-inden-1-yl)methyl)spiro[chromane-2,4′-piperidine]] | 0.05 µM | 110 nM |  |
|  |  | Fc1ccc(O[C@H]2CCCN(CC3CCc4ccccc43)C2)cc1 (stereo partly drawn) [Example 254, (3S)-1-((2,3-dihydro-1H-inden-1-yl)methyl)-3-(4-fluorophenoxy)piperidine] | 0.52 µM | 770 nM |  |
|  |  | COc1ccccc1OC1CCN(CC2Cc3ccccc3C2)[C@@H](C)C1 (single isomer, unassigned) [Example 147] | 0.07 µM | 1530 nM |  |
|  |  | COc1ccccc1O[C@@H]1CCN(CC2Cc3ccccc3C2)[C@@H](C)C1 [Example 142, (2S,4R)-1-((2,3-dihydro-1H-inden-2-yl)methyl)-4-(2-methoxyphenoxy)-2-methylpiperidine] | 0.3 µM | 910 nM |  |
|  | 18% | c1ccc2c(c1)CCC2CN1CCC2(CCc3ccncc3O2)CC1 (centres unmarked) [Example 405, 1-((2,3-dihydro-1H-inden-1-yl)methyl)-3′,4′-dihydrospiro[piperidine-4,2′-pyrano[2,3-c]pyridine]] | 0.18 µM |  |  |

| inhibition at 10 µM [2] | inhibition at 1 µM [2] | SMILES | IC50 ([1]; read-out: 5HT2A IC50) | IC50 [2] | IC50 ([1]; 5HT2A IC50, μM) |
| --- | --- | --- | --- | --- | --- |
|  |  | CN(C)c1ccc2c(c1)C(CN1CCC(Oc3ccc(F)cc3)CC1)CC2 (centres unmarked) [Example 116, 3-((4-(4-fluorophenoxy)piperidin-1-yl)methyl)-N,N-dimethyl-2,3-dihydro-1H-inden-5-amine] | 0.01 µM | 2340 nM |  |
|  |  | c1ccc2c(c1)CC(CN1CCC3(CC1)Cc1ccccc1O3)C2 [Example 396, 1′-((2,3-dihydro-1H-inden-2-yl)methyl)-3H-spiro[benzofuran-2,4′-piperidine]] | 0.09 µM | 170 nM |  |
|  |  | O=C1c2cc(Cl)ccc2CCCN1CCN1CCC(Oc2ccc(F)cc2)CC1 [Example 209, 8-chloro-2-(2-(4-(4-fluorophenoxy)piperidin-1-yl)ethyl)-2,3,4,5-tetrahydro-1H-benzo[c]azepin-1-one] | 0.02 µM | 270 nM |  |
|  | 34% | O=C(CN1CCC(Oc2ccccc2)CC1)c1ccccc1 [Example 216, 2-(4-phenoxypiperidin-1-yl)-1-phenylethan-1-one] | 0.15 µM |  |  |
|  |  | OC(COC1CCCCC1)CN1C[C@@H]2CC[C@H]1CN2c1ccccc1 (stereo partly drawn) [Example 317, 1-(cyclohexyloxy)-3-((1S,4S)-5-phenyl-2,5-diazabicyclo[2.2.2]octan-2-yl)propan-2-ol] | 0.49 µM | 1830 nM |  |
| 83% |  | O=C1c2ccccc2CCN1CCN1CC[C@@H](Oc2ccc(F)cc2)C1 [Example 25, (R)-2-(2-(3-(4-fluorophenoxy)pyrrolidin-1-yl)ethyl)-3,4-dihydroisoquinolin-1(2H)-one] | 0.17 µM |  |  |
|  |  | c1ccc([C@H]2COC3(CCN(C[C@@H]4CCc5ccccc54)CC3)C2)cc1 (single isomer, unassigned) [Compound 378] | 0.06 µM | 770 nM |  |
|  |  | COc1ccccc1CN1CCC2(CCN(CC3CCc4ccccc43)C2)C1 (centres unmarked) [Example 347, 2-((2,3-dihydro-1H-inden-1-yl)methyl)-7-(2-methoxybenzyl)-2,7-diazaspiro[4.4]nonane] | 0.03 µM | 3190 nM |  |
|  |  | OC(CO[C@@H]1CCc2ccccc21)CN1CC[C@@H](Oc2ccc(F)cc2)C1 (stereo partly drawn) [Example 44, 1-(((R)-2,3-dihydro-1H-inden-1-yl)oxy)-3-((R)-3-(4-fluorophenoxy)pyrrolidin-1-yl)propan-2-ol] | 0.14 µM | 240 nM |  |
| 52% |  | O[C@H](COC1CCCCC1)CN1C[C@@H]2C[C@H]1CN2Cc1ccccc1 [Example 309, (S)-1-((1S,4S)-5-benzyl-2,5-diazabicyclo[2.2.1]heptan-2-yl)-3-(cyclohexyloxy)propan-2-ol] | 4.81 µM |  |  |
|  |  | OC(COC1CCCc2ccccc21)CN1CCN(Cc2ccccc2)CC1 (centres unmarked) [Example 83, 1-(4-benzylpiperazin-1-yl)-3-((1,2,3,4-tetrahydronaphthalen-1-yl)oxy) propan-2-ol] | 2.87 µM | 20 nM |  |
|  | 16% | c1ccc2c(c1)CCC1(CN(CC3CCc4ccccc43)C1)O2 (centres unmarked) [Example 385, 1-((2,3-dihydro-1H-inden-1-yl)methyl)spiro[azetidine-3,2′-chromane]] | 0.54 µM |  |  |
|  | -2% | O=C1Nc2ccccc2CC12CCN(C[C@H](O)COc1ccccc1)CC2 [Example 445, (S)-1-(2-hydroxy-3-phenoxypropyl)-1′,4′-dihydro-2′H-spiro[piperidine-4,3′-quinolin]-2′-one] | 0.3 µM |  |  |
|  |  | OC(COc1ccccc1)CN1CCN(c2cccc(Cl)c2)CC1 (centres unmarked) [Example 89, 1-(4-(3-chlorophenyl)piperazin-1-yl)-3-phenoxypropan-2-ol] | 0.07 µM | 440 nM |  |
|  |  | COc1ccc2c(c1)C(CN1CCC(OCc3ccccc3F)CC1)CC2 (centres unmarked) [Example 243, 4-((2-fluorobenzyl)oxy)-1-((6-methoxy-2,3-dihydro-1H-inden-1-yl)methyl)piperidine] | 0.36 µM | 100 nM |  |
|  |  | COc1cccc(OCCN2CCN(c3nsc4ccccc34)CC2)c1 [Example 68, 3-(4-(2-(3-methoxyphenoxy)ethyl)piperazin-1-yl)benzo[d]isothiazole] | 0.004 µM | 730 nM |  |
|  | 34% | COc1ccc2c(c1)C(CN1CCC(Oc3cccc(C)n3)CC1)CC2 (centres unmarked) [Example 124, 2-((1-((6-methoxy-2,3-dihydro-1H-inden-1-yl)methyl)piperidin-4-yl)oxy)-6-methylpyridine] | 0.12 µM |  |  |
| 85% |  | N#Cc1ccc(OCCN2CCN(c3nsc4ccccc34)CC2)cc1 [Example 67, 4-(2-(4-(benzo[d]isothiazol-3-yl)piperazin-1-yl)ethoxy)benzomtnle] | 0.01 µM |  |  |
